The source of these data is ChEMBL document CHEMBL1135625, “Synthesis and antiinflammatory evaluation of 9-anilinoacridine and 9-phenoxyacridine derivatives” (J Med Chem, 2002).

Molecules are shown by their SMILES. pIC50: −log10 of the molar value.

Assay [1] is filed under the species Rattus norvegicus. The assay can be described thus: % inhibition against mast cell degranulation by measuring the content of beta-glucuronidase in the supernatant. The following applies: concentration not given here.
Assay [2] has as its system N9. Nature of the assay: % inhibition against TNF-alpha release in N9 cells in the supernatant. The assay is classed as functional, Mus musculus. Also on record: concentration or dose not given beside the values.
For assay [3], the system named is RAW264.7. Nature of the assay: (§1) Inhibitory activity against TNF-alpha release in RAW 264.7 cells in the supernatant. The assay is classed as functional, cell-based. The following applies: Mus musculus.
The species entered for assay [4] is Rattus norvegicus. Nature of the assay: Inhibitory activity against neutrophil degranulation by measuring the content of lysozyme in the supernatant. The format is functional.
Assay [5] is filed under the species Rattus norvegicus. The assay can be described thus: % inhibition against mast cell degranulation by measuring the content of histamine in the supernatant. The format is functional. More on the design: concentration or dose not given beside the values.
Assay [6] deals with N9. Nature of the assay: (§2) Inhibitory activity against TNF-alpha release in N9 cells in the supernatant. The assay is classed as functional, cell-based, Mus musculus.
The species named for assay [7] is Rattus norvegicus. Nature of the assay: Inhibitory activity against mast cell degranulation by measuring the content of histamine in the supernatant. The assay is classed as functional.
For assay [8], the species on record is Rattus norvegicus. Nature of the assay: Inhibitory activity against mast cell degranulation by measuring the content of beta-glucuronidase in the supernatant. The format is functional.
For assay [9], the species on record is Rattus norvegicus. Nature of the assay: Inhibitory activity against neutrophil degranulation by measuring the content of beta-glucuronidase in the supernatant. The assay is classed as functional.
For assay [10], the species on record is Rattus norvegicus. The assay can be described thus: % inhibition against neutrophil degranulation by measuring the content of lysozyme in the supernatant. The assay is classed as functional. Also on record: concentration or dose not given beside the values.
The species named for assay [11] is Rattus norvegicus. Nature of the assay: % inhibition against neutrophil degranulation by measuring the content of beta-glucuronidase in the supernatant. The format is functional. Also on record: concentration or dose not given beside the values.
The test system of assay [12] is RAW264.7. The assay can be described thus: % inhibition against TNF-alpha release in RAW 264.7 cells in the supernatant. Also on record: concentration or dose not given beside the values. The assay is classed as functional, Mus musculus.
The species entered for assay [13] is Rattus norvegicus. The assay can be described thus: % inhibition against mast cell degranulation by measuring the content of beta-glucuronidase in the supernatant. Also on record: concentration or dose not given beside the values. The assay is classed as functional.
For assay [14], the species on record is Rattus norvegicus. Nature of the assay: 50% inhibition against mast cell degranulation by measuring the content of beta-glucuronidase in the supernatant. The format is functional.
Assay [15] concerns N9. The assay can be described thus: 50% inhibition against TNF-alpha release in N9 cells in the supernatant. The assay is classed as functional, cell-based. The following applies: Mus musculus.
In assay [16] the test system is RAW264.7. Nature of the assay: 50% inhibition against TNF-alpha release in RAW 264.7 cells in the supernatant. The assay is classed as functional, cell-based. The following applies: Mus musculus.
Assay [17] has as its system N9. Described as §2. The format is functional, Mus musculus.
Assay [18] has as its system RAW264.7. The description is as §1. The assay is classed as functional, Mus musculus.

In the assay listed under Rattus norvegicus [1], `COc1ccc2nc3ccccc3c(Oc3ccc(C(C)=O)cc3)c2c1` gave an inhibition of 25%. The Inhibition with N9 [2] came to 36.1%; in the assay filed under Rattus norvegicus [5], 9.4%. In addition, the negative logarithm of the IC50 (pIC50) is 4.71 with RAW264.7 [3]; 4.74 in the assay listed under Rattus norvegicus [4]; less than 5.52 in the assay on N9 [6]; less than 4.52 in the assay filed under Rattus norvegicus [7]; less than 4.52 in the assay filed under Rattus norvegicus [8]; 4.89 in the assay filed under Rattus norvegicus [9].

`CCN(CC)CCCC(C)Nc1c2ccc(Cl)cc2nc2ccc(OC)cc12` (stereo not drawn) [QUINACRINE]: the results for the negative-log IC50 (pIC50) in the assay filed under Rattus norvegicus [7] and in the assay listed under Rattus norvegicus [8] were 4.51 and 4.54, respectively.

On to `CC(=O)c1ccc(Oc2c3ccccc3nc3ccc(Cl)cc23)cc1`, for which the Inhibition is reported as 12.3% in the assay with N9 [2]; 14.4% in the assay listed under Rattus norvegicus [5]; -16.4% in the assay filed under Rattus norvegicus [10]; 14.8% in the assay filed under Rattus norvegicus [11]; 4.6% in the assay with RAW264.7 [12]; 29.4% in the assay listed under Rattus norvegicus [13]. Besides, the negative-log IC50 (pIC50) with RAW264.7 [3], in the assay listed under Rattus norvegicus [4], in the assay with N9 [6], in the assay listed under Rattus norvegicus [7], in the assay listed under Rattus norvegicus [8] and in the assay filed under Rattus norvegicus [9] was less than 4.52 each time.

Consider `COc1cccc2c(Oc3ccc(C(C)=O)cc3)c3ccccc3nc12`, for which the figures for the Inhibition with N9 [2], in the assay filed under Rattus norvegicus [11] and with RAW264.7 [12] were 19.7%, 35.2% and 34.3%, respectively. The pIC50 was less than 4.52 in the assay on RAW264.7 [3]; 4.67 in the assay listed under Rattus norvegicus [4]; less than 5.00 with N9 [6]; 4.71 in the assay listed under Rattus norvegicus [14]; 4.80 in the assay filed under Rattus norvegicus [7]; less than 4.52 in the assay listed under Rattus norvegicus [9].

Regarding `COc1ccc2nc3cc(Cl)ccc3c(Oc3ccc(C(C)=O)cc3)c2c1`, the Inhibition is listed as 45.9% in the assay on N9 [2]; 7.2% in the assay listed under Rattus norvegicus [5]; -12.8% in the assay listed under Rattus norvegicus [10]; 10.4% in the assay filed under Rattus norvegicus [11]; 33.1% in the assay on RAW264.7 [12]; 26.4% in the assay listed under Rattus norvegicus [13]. For the same molecule, the negative-log IC50 (pIC50) was less than 4.52 with RAW264.7 [3]; less than 4.52 in the assay listed under Rattus norvegicus [4]; less than 5.00 with N9 [6]; less than 4.52 in the assay filed under Rattus norvegicus [7]; less than 4.52 in the assay filed under Rattus norvegicus [8]; less than 4.52 in the assay filed under Rattus norvegicus [9].

As to `C/C(=N\O)c1ccc(Nc2c3ccccc3nc3ccccc23)cc1`, the Inhibition came out at 40.1% with N9 [2], 23.3% in the assay filed under Rattus norvegicus [5], 44.9% with RAW264.7 [12] and 29.5% in the assay listed under Rattus norvegicus [13]. The pIC50 in the assay on N9 [15] is less than 5.52; in the assay listed under Rattus norvegicus [4] it was 5.09; in the assay on RAW264.7 [16] it was less than 5.00; in the assay listed under Rattus norvegicus [7] it was less than 4.52; in the assay filed under Rattus norvegicus [8] it was less than 4.52; in the assay filed under Rattus norvegicus [9], 5.36.

As to `CC(=O)c1ccc(Oc2c3ccccc3nc3ccccc23)cc1`, the Inhibition in the assay with N9 [2] stood at 23.9%; in the assay filed under Rattus norvegicus [5], 43.8%; in the assay filed under Rattus norvegicus [11], 42%; in the assay with RAW264.7 [12], 45.6%; in the assay listed under Rattus norvegicus [13], 44.6%. Besides, the pIC50 in the assay with RAW264.7 [3] is less than 4.52; in the assay listed under Rattus norvegicus [4], 4.73; in the assay with N9 [6], less than 5.52; in the assay listed under Rattus norvegicus [7], less than 4.52; in the assay listed under Rattus norvegicus [8] it was less than 4.52; in the assay filed under Rattus norvegicus [9] it was less than 4.52.

As to `O=Cc1ccc(Oc2c3ccccc3nc3ccccc23)cc1`, the pIC50 is less than 4.52 in the assay on RAW264.7 [3]; less than 5.52 in the assay on N9 [15]; less than 4.52 in the assay listed under Rattus norvegicus [4]; 4.68 in the assay listed under Rattus norvegicus [14]; 4.67 in the assay filed under Rattus norvegicus [7]; less than 4.52 in the assay listed under Rattus norvegicus [9]. For the same molecule, the Inhibition with N9 [17] worked out at 19.9%; in the assay filed under Rattus norvegicus [10], 44.8%; with RAW264.7 [18], 17.2%; in the assay listed under Rattus norvegicus [11] it was 49.9%.

For the molecule `CN1CCN(CCCN2c3ccccc3Sc3ccc(C(F)(F)F)cc32)CC1` [TRIFLUOPERAZINE], the pIC50 in the assay listed under Rattus norvegicus [7] is 5.00; in the assay listed under Rattus norvegicus [8], 4.89.

Regarding `CO/N=C(\C)c1ccc(Nc2c3ccccc3nc3ccccc23)cc1`, the Inhibition with N9 [2] was found to be 39.3%; in the assay filed under Rattus norvegicus [10], 15.4%; in the assay filed under Rattus norvegicus [11] it was 46.9%; in the assay on RAW264.7 [12], 7.2%. Moreover, the pIC50 was less than 5.52 in the assay on N9 [15]; less than 4.52 in the assay filed under Rattus norvegicus [4]; less than 4.52 with RAW264.7 [16]; 4.68 in the assay filed under Rattus norvegicus [14]; 4.68 in the assay listed under Rattus norvegicus [7]; less than 4.52 in the assay filed under Rattus norvegicus [9].

For `C[C@@H]1C[C@H]2[C@@H]3CCC4=CC(=O)C=C[C@]4(C)[C@@]3(F)[C@@H](O)C[C@]2(C)[C@@]1(O)C(=O)CO` [DEXAMETHASONE], the pIC50 in the assay with RAW264.7 [3] is 6.38; in the assay on N9 [6], 7.13.

Turning to `CC(=O)COc1ccc(Nc2c3ccccc3nc3ccccc23)cc1`, the Inhibition stood at 6.6% with N9 [2]; 19.2% in the assay listed under Rattus norvegicus [5]; 21.6% in the assay listed under Rattus norvegicus [10]; 35.8% in the assay filed under Rattus norvegicus [11]; 1.3% in the assay filed under Rattus norvegicus [13]. Also, the pIC50 with N9 [15] was less than 6.00; in the assay listed under Rattus norvegicus [4] it was less than 4.52; with RAW264.7 [16] it was 5.09; in the assay listed under Rattus norvegicus [7], less than 4.52; in the assay filed under Rattus norvegicus [8] it was less than 4.52; in the assay listed under Rattus norvegicus [9], less than 4.52.

As for `CC(=O)c1ccc(Oc2c3c(nc4ccccc24)CCCC3)cc1`, the Inhibition is -3.5% with N9 [2]; 5.7% in the assay filed under Rattus norvegicus [5]; 32.4% in the assay filed under Rattus norvegicus [10]; 42.1% in the assay listed under Rattus norvegicus [11]; 48.9% in the assay on RAW264.7 [12]; 13.3% in the assay listed under Rattus norvegicus [13]. The pIC50 in the assay with RAW264.7 [3] was less than 4.52; in the assay filed under Rattus norvegicus [4], less than 4.52; in the assay with N9 [6], less than 5.52; in the assay listed under Rattus norvegicus [7], less than 4.52; in the assay listed under Rattus norvegicus [8] it was less than 4.52; in the assay filed under Rattus norvegicus [9], less than 4.52.

Regarding `CC(=O)/C=C/c1ccc(Oc2c3ccccc3nc3ccccc23)cc1`, the negative-log IC50 (pIC50) was less than 4.52 with RAW264.7 [3]; less than 4.52 in the assay filed under Rattus norvegicus [4]; 5.06 with N9 [6]; less than 4.52 in the assay listed under Rattus norvegicus [7]; less than 4.52 in the assay filed under Rattus norvegicus [8]; less than 4.52 in the assay listed under Rattus norvegicus [9]. Also, the Inhibition is listed as -10.5% in the assay filed under Rattus norvegicus [5]; 10.3% in the assay listed under Rattus norvegicus [10]; 32.4% in the assay listed under Rattus norvegicus [11]; -15.7% with RAW264.7 [12]; 7.7% in the assay filed under Rattus norvegicus [13].

On to `CC(=O)c1ccc(Nc2c3ccccc3nc3ccccc23)cc1`, for which the pIC50 in the assay on N9 [15] is 6.10; in the assay listed under Rattus norvegicus [4], 4.63; in the assay with RAW264.7 [16], less than 5.00; in the assay listed under Rattus norvegicus [7] it was less than 4.52; in the assay listed under Rattus norvegicus [8] it was less than 4.52; in the assay filed under Rattus norvegicus [9], less than 4.52. Further, the Inhibition was 15.7% in the assay listed under Rattus norvegicus [5], 26.7% in the assay listed under Rattus norvegicus [11], 47.2% in the assay with RAW264.7 [12] and 34.7% in the assay listed under Rattus norvegicus [13].

The inhibition is the percentage by which the read-out fell short of the control. In general, Inhibition refers to the drop in the measured response relative to a control, in per cent. The term pIC50 denotes the IC50 on a negative log10 scale, so that one unit is a factor of ten.
